Our source for the inhibition values is publication PMC8449129, “Single tracer-based protocol for broad-spectrum kinase profiling in live cells with NanoBRET” (STAR Protocols, 2021).

Common to all, as to experiment: cell-based
Design in all cases: NanoBRET live-cell target engagement; % occupancy from displacement of tracer K10 on NanoLuc-kinase fusions, mean n=3
Holding throughout (conditions): HEK293, read-out: % inhibition

The target of one assay is RPS6KA4 (Homo sapiens, UniProt O75676). A digest of the protocol:
(§1)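 Live-cell NanoBRET target engagement: cells expressing kinase–NanoLuc fusion with tracer treated with compound 2 h at 37 °C, 5% CO2. BRET read from donor (450 nm) and acceptor (610/630 nm) emission with 20 μM extracellular NanoLuc inhibitor; % occupancy calculated relative to tracer+DMSO and zero-BRET controls.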

The target of a further assay is STK16 (Homo sapiens, UniProt O75716). A digest of the protocol: as §1
A further assay concerns the target CDKL5 (Homo sapiens, UniProt O76039). A digest of the protocol:
as §1

A further assay has as its target RIPK2 (Homo sapiens, UniProt O43353). In a few lines:
as §1

The target of another assay is CDK5 (Homo sapiens, UniProt Q00535). In a few lines: as §1
Another assay has as its target T1, MLTK (Homo sapiens, UniProt Q9NYL2).
T1 construct: gene MAP3K20
A digest of the protocol:
as §1

The target of the next assay is NLK (Homo sapiens, UniProt Q9UBE8). In a few lines:
as §1

Another assay has as its target RPS6KA1 (Homo sapiens, UniProt Q15418). A digest of the protocol:
as §1

A further assay concerns the target CDKL2 (Homo sapiens, UniProt Q92772). In a few lines: as §1
A further assay has as its target STK38 (Homo sapiens, UniProt Q15208). A digest of the protocol:
as §1

The target in the next assay is SIK3 (Homo sapiens, UniProt Q9Y2K2). A digest of the protocol: as §1
The next assay concerns the target PRKCE (Homo sapiens, UniProt Q02156). A digest of the protocol: as §1
A further assay concerns the target NEK4 (Homo sapiens, UniProt P51957). In a few lines: as §1
A further assay has as its target PTK2 (Homo sapiens, UniProt Q05397). In a few lines: as §1
The next assay has as its target MAPK6 (Homo sapiens, UniProt Q16659). In a few lines:
as §1

Another assay addresses CDK20 (Homo sapiens, UniProt Q8IZL9). In a few lines: as §1
The next assay deals with MAST3 (Homo sapiens, UniProt O60307). A digest of the protocol:
as §1

The next assay addresses CDK10 (Homo sapiens, UniProt Q15131). A digest of the protocol: as §1

Chain of CDKL5 (O76039 whole entry): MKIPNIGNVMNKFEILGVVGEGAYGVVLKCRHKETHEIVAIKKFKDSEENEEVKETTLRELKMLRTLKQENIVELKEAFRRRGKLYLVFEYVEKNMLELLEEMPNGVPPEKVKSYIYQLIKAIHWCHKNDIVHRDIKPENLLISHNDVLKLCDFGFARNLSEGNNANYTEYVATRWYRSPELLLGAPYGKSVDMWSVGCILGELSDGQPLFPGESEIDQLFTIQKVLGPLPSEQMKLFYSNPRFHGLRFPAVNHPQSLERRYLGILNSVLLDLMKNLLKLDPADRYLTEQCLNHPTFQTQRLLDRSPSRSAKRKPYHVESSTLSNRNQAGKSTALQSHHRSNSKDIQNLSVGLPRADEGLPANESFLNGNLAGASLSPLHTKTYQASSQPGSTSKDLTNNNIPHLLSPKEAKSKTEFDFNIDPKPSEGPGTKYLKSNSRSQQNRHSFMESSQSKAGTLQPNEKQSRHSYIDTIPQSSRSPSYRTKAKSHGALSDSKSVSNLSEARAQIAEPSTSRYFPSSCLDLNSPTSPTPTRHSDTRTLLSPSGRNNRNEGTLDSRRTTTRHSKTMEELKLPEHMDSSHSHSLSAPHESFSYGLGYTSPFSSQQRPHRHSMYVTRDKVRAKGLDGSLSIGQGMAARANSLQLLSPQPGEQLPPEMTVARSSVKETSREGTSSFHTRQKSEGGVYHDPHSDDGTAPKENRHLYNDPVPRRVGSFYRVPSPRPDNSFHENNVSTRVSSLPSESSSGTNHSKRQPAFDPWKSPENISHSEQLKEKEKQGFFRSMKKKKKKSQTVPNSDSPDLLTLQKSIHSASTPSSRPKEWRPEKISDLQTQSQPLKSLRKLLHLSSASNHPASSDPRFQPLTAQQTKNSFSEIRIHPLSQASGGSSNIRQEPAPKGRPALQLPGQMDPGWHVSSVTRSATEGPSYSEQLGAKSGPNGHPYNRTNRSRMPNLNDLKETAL
Chain of CDK5 (Q00535 whole entry): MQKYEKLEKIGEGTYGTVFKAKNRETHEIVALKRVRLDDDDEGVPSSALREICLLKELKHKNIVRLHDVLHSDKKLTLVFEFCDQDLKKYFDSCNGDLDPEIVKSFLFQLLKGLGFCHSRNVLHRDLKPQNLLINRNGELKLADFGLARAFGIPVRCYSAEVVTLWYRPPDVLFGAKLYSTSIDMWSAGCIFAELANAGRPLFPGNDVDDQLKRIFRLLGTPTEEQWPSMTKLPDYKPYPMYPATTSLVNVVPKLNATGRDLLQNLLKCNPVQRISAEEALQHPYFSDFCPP
Chain of MAST3 (O60307 whole entry): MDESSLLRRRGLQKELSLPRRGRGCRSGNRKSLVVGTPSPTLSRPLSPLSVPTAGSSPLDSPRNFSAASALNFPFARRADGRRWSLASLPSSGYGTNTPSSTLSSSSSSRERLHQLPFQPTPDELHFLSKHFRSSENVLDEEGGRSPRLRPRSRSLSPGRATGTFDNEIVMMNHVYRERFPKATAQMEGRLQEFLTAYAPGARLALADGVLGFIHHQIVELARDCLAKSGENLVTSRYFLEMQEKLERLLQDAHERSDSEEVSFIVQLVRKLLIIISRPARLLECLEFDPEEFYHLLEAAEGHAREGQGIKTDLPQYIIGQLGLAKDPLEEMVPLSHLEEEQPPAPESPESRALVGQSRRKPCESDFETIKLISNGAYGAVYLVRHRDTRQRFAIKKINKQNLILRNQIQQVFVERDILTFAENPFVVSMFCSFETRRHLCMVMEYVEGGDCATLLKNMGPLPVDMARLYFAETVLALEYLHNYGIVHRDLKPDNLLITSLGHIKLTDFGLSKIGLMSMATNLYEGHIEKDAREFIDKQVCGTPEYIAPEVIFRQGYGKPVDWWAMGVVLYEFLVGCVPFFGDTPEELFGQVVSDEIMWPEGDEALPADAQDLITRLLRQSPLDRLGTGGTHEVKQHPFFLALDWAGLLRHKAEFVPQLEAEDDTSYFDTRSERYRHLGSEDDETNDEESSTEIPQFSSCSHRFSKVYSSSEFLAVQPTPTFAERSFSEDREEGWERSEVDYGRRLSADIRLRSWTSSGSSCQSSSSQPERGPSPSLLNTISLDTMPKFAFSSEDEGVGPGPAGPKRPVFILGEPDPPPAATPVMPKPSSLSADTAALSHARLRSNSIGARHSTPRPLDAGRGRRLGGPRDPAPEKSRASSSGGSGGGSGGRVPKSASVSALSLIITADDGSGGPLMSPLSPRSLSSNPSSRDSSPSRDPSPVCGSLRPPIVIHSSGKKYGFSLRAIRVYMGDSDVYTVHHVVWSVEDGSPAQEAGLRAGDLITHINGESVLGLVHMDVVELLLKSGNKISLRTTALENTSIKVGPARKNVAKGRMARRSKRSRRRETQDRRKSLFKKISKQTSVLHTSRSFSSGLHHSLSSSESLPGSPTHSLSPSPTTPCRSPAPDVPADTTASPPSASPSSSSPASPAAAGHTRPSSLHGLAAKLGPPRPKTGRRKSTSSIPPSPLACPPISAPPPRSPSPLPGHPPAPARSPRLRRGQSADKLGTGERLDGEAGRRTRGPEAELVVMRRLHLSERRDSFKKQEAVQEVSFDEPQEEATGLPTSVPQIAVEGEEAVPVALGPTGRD
Chain of RPS6KA4 (O75676 whole entry, the tested form may be a part): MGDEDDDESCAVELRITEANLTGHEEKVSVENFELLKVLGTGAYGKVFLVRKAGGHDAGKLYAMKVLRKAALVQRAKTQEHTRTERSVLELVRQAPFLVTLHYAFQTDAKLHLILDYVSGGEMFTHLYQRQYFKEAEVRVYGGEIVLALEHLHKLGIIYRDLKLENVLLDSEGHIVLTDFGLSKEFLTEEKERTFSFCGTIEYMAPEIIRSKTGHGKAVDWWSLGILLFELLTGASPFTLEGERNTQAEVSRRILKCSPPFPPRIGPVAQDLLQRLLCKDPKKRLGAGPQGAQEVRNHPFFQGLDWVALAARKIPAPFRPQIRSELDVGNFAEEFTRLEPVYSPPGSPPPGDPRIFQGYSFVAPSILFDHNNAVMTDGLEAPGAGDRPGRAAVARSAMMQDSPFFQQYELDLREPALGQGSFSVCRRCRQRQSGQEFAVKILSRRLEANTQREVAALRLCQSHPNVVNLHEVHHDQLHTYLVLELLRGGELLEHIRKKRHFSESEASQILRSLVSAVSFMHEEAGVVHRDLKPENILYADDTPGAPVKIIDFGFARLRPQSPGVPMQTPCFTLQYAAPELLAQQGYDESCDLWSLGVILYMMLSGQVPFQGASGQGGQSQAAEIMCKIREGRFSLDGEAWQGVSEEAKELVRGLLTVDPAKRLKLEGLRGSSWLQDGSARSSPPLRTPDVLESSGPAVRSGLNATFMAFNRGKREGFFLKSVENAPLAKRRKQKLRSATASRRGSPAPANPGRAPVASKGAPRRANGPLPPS
Chain of CDK20 (Q8IZL9 whole entry): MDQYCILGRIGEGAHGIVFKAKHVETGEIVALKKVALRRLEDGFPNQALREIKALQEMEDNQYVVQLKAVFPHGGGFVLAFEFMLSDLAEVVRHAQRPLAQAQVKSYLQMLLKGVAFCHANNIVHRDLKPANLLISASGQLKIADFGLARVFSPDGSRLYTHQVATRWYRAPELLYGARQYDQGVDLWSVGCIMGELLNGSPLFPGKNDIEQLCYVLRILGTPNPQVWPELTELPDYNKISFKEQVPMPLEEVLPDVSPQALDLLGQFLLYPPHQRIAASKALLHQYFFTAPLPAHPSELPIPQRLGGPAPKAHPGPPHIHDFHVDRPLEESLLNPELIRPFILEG
Chain of RIPK2 (O43353 whole entry): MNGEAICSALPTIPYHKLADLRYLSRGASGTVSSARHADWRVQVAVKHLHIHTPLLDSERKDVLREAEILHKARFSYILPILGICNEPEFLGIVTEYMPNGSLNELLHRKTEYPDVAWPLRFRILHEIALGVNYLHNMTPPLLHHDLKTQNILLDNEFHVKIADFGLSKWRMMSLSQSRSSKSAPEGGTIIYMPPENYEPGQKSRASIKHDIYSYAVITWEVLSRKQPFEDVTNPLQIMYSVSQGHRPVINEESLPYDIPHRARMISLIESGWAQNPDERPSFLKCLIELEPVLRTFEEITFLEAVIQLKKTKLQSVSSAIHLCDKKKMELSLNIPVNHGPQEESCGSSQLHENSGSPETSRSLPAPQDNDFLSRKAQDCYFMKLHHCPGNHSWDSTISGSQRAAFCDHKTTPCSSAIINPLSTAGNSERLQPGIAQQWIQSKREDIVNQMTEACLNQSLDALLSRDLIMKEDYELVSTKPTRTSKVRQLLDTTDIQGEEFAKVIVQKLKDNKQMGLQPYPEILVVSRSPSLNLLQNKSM
Chain of CDKL2 (Q92772 whole entry): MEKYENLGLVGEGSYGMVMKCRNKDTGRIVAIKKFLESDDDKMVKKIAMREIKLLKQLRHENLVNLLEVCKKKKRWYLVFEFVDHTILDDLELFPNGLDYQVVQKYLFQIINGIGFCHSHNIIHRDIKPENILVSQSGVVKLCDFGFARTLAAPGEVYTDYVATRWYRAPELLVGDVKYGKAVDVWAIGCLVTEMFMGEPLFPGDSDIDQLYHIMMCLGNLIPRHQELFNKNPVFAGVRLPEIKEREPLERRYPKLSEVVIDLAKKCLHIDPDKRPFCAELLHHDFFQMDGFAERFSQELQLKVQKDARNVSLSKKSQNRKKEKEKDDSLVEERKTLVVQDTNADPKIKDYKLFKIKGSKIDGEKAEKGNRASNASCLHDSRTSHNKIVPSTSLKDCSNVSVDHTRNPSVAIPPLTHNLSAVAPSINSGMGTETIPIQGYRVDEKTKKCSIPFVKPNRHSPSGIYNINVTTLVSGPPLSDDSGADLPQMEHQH
Chain of STK16 (O75716 whole entry): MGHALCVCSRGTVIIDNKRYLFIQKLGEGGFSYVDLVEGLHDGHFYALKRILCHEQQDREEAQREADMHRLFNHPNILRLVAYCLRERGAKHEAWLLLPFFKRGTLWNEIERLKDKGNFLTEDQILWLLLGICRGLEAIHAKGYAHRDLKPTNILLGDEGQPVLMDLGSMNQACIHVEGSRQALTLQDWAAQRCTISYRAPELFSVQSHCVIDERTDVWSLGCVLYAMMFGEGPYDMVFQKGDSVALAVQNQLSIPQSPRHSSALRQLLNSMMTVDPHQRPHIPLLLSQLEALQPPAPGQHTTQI

`C[C@@H](Oc1cc(-c2cnn(C3CCNCC3)c2)cnc1N)c1c(Cl)ccc(F)c1Cl` [crizotinib]: the inhibition at 1 µM at RPS6KA4 is -11%; at STK16 it was -13%; on CDKL5, 4%; on RIPK2, 43%; at CDK5 it was 1%; on MLTK, -3%. For the same compound, the inhibition at 1 µM on NLK is -1%; at RPS6KA1, -6%; on CDKL2, 21%; at STK38 it was 1%; on SIK3 it was 0%; on PRKCE it was -6%. In addition, the inhibition at 1 µM was -12% at NEK4; 40% on PTK2; 2% at MAPK6; -11% at CDK20; -1% at MAST3; 8% on CDK10.
